Measurements reported in US9920063B2, “Melampomagnolide B derivatives” (Board of Trustees of the University of Arkansas, priority 2013, dated 2018).
“Also recorded” adds a separate entry of the source. Read-outs that look alike come from different tables or passages of the source.

Experiments:
M9 ENL cells [1] = experiment: cells; conditions: 24 h
Experimental: (§1) Carbamate and carbonate derivatives of MMB were also screened for activity against M9 ENL cells at concentrations of 5, 10 and 20 μM (FIG. 10). […] Additionally, succinic amide derivatives of MMB were screened for activity against M9 ENL cells at concentrations of 5, 10 and 20 μM (FIG. 11).
(§2) Ester and amide derivatives of melampomagnolide B were screened for anti-leukemic activity against M9ENL AML cell lines (FIG. 12; FIG. 14; FIG. 15; FIG. 16). For each compound, in vitro cell culture studies were performed in which a range of concentrations (0.25-20 μM) was tested for cytotoxicity against leukemia cell lines, primary leukemia specimens and normal bone marrow controls.

M9 ENL cells [2] = conditions: for Reduction of cell viability: M9 ENL cells, lowest concentration tested (5, 10 and 20 μM tested); for EC50: M9ENL AML cell lines, 24 hours of drug exposure
Experimental: as §1, §2

[3] = test system: panel of 60 human cancer cell lines; experiment: Screen against a panel of 60 human tumor cell lines (single dose and five dose), panel and sub-panel statements; type: cell-based; conditions: for Activity in NCI single dose screen: single concentration of 10^−5 M; for Outcome of initial single dose screening: single concentration 10^−5 M, more than 60% growth inhibition in at least eight cell lines of the panel; for Growth inhibition compared to PTL (1) and DMAPT (2): all human tumor cell lines, with the exception of the leukemia cell line subpanel; for Antileukemic activity compared to parent compound MMB: sub-panel of human leukemia cells

C=C1C(=O)O[C@H]2[C@H]1CC/C(C(=O)Nc1n[nH]c(SC)n1)=C\CC[C@@]1(C)O[C@@H]21 [JVM 3-53, (1aR,7aS,10aS,10bS,E)-1a-methyl-8-methylene-N-(5-(methylthio)-1H-1,2,4-triazol-3-yl)-9-oxo-1a,2,3,6,7,7a,8,9,10a,10b-decahydrooxireno[2′,3′:9,10]cyclodeca[1,2-b]furan-5-carboxamide]
EC50 (M9 ENL cells [1]): 0.016 µM
Fold greater cytotoxicity than PTL (M9 ENL cells [2]; M9 cell lines): ~30 fold

C=C1C(=O)O[C@H]2[C@H]1CC/C(COC(=O)OCCN1CCOCC1)=C\CC[C@@]1(C)O[C@@H]21 [JVM 2-60]
Reduction of cell viability (M9 ENL cells [2]): greater than 50%

C=C1C(=O)O[C@H]2[C@H]1CC/C(CNC(=O)c1cc3ccccc3[nH]1)=C\CC[C@@]1(C)O[C@@H]21 [JVM 4-19]
Activity in NCI single dose screen [3]: did not show potent activity against leukemia cell lines; also recorded: potent activity against the majority of colon cancer, melanoma, renal cancer, prostate cancer and breast cancer cell lines tested; also recorded: moderate activity against NSCLC, CNS cancer and ovarian cancer cell lines

C=C1C(=O)O[C@H]2[C@H]1CC/C(COC(=O)NCCCCCCO)=C\CC[C@@]1(C)O[C@@H]21 [JVM 2-31]
Outcome of initial single dose screening [3]: selected for a five-dose screening

C=C1C(=O)O[C@H]2[C@H]1CC/C(COC(=O)N1CCN(C)CC1)=C\CC[C@@]1(C)O[C@@H]21 [JVM 2-44]
Outcome of initial single dose screening [3]: selected for a five-dose screening

C=C1C(=O)O[C@H]2[C@H]1CC/C(C(=O)N1CCN(C)CC1)=C\CC[C@@]1(C)O[C@@H]21 [JVM 3-46]
EC50 (M9 ENL cells [1]): 28 µM

C=C1C(=O)OC2C1CCC(COC(=O)c1cc3cc(F)ccc3[nH]1)=CCCC1(C)OC21 (stereo not drawn) [BS-2-68]
Outcome of initial single dose screening [3]: selected for five dose screening

C=C1C(=O)O[C@H]2[C@H]1CC/C(COC(=O)c1cccc3ccccc13)=C\CC[C@@]1(C)O[C@@H]21 [JVM 3-38]
EC50 (M9 ENL cells [1]): 2.9 µM

C=C1C(=O)O[C@H]2[C@H]1CC/C(CNC(=O)Cc1c[nH]c3ccccc13)=C\CC[C@@]1(C)O[C@@H]21 [JVM 4-14]
Activity in NCI single dose screen [3]: potent activity against all leukemia lines tested as well as some NSCLC, colon cancer, melanoma, renal cancer and breast cancer cell lines; also recorded: moderate activity against CNS cancer and ovarian cancer

C=C1C(=O)O[C@H]2[C@H]1CC/C(COC(=O)OC)=C\CC[C@@]1(C)O[C@@H]21 [JVM 2-40]
Outcome of initial single dose screening [3]: selected for a five-dose screening

C=C1C(=O)O[C@H]2[C@H]1CC/C(COC(=O)NCCN1CCCCC1)=C\CC[C@@]1(C)O[C@@H]21 [JVM 2-13]
Outcome of initial single dose screening [3]: selected for a five-dose screening

C=C1C(=O)O[C@H]2[C@H]1CC/C(COC(=O)CCC(=O)NCc1ccc(Cl)nc1)=C\CC[C@@]1(C)O[C@@H]21 [JVM 96]
Outcome of initial single dose screening [3]: selected for a five-dose screening

C=C1C(=O)O[C@H]2[C@H]1CC/C(COC(=O)OCCCN1CCCCC1)=C\CC[C@@]1(C)O[C@@H]21 [JVM 2-26]
Outcome of initial single dose screening [3]: selected for a five-dose screening

C=C1C(=O)O[C@H]2[C@H]1CC/C(COC(=O)N1CCC(F)(F)CC1)=C\CC[C@@]1(C)O[C@@H]21 [JVM 2-66]
Outcome of initial single dose screening [3]: selected for a five-dose screening
Reduction of cell viability (M9 ENL cells [2]): greater than 50%

C=C1C(=O)O[C@H]2[C@H]1CC/C(COC(=O)OCCN1CCCC1)=C\CC[C@@]1(C)O[C@@H]21 [JVM 2-59]
Reduction of cell viability (M9 ENL cells [2]): greater than 50%

C=C1C(=O)O[C@H]2[C@H]1CC/C(COC(=O)c1ccc(C#N)cc1)=C\CC[C@@]1(C)O[C@@H]21 [JVM 3-39]
EC50 (M9 ENL cells [1]): 11 µM

C=C1C(=O)OC2C1CCC(COC(=O)c1cc3cc(Cl)ccc3[nH]1)=CCCC1(C)OC21 (stereo not drawn) [BS-2-30]
Outcome of initial single dose screening [3]: selected for five dose screening

C=C1C(=O)O[C@H]2[C@H]1CC/C(COC(=O)NCCN1CCOCC1)=C\CC[C@@]1(C)O[C@@H]21 [Compound 6d, ((1aR,7aS,10aS,10bS,E)-1a-methyl-8-methylene-9-oxo-1a,2,3,6,7,7a,8,9,10a,10b-decahydrooxireno[2′,3′:9,10]cyclodeca[1,2-b]furan-5-yl)-methyl(2-morpholinoethyl) carbamate]
Outcome of initial single dose screening [3]: selected for a five-dose screening

C=C1C(=O)O[C@H]2[C@H]1CC/C(COC(=S)n1ccnc1)=C\CC[C@@]1(C)O[C@@H]21 [JVM 66]
Outcome of initial single dose screening [3]: selected for a five-dose screening

C=C1C(=O)O[C@H]2[C@H]1CC/C(COC(=O)c1ccc(Br)cc1)=C\CC[C@@]1(C)O[C@@H]21 [JVM 3-30]
EC50 (M9 ENL cells [1]): 3.3 µM

C=C1C(=O)O[C@H]2[C@H]1CC/C(COC(=O)c1cc3cc(OC)ccc3[nH]1)=C\CC[C@@]1(C)O[C@@H]21 [BS-2-01]
Outcome of initial single dose screening [3]: selected for five dose screening
EC50 (M9 ENL cells [2]): 2.2 µM

C=C1C(=O)OC2C1CCC(COC(=O)c1cc3ccccc3s1)=CCCC1(C)OC21 (stereo not drawn) [BS-2-65]
Outcome of initial single dose screening [3]: selected for five dose screening

C=C1C(=O)O[C@H]2[C@H]1CC/C(COC(=O)c1ccc(Cl)cc1)=C\CC[C@@]1(C)O[C@@H]21 [JVM 3-41]
EC50 (M9 ENL cells [1]): 13 µM

C=C1C(=O)O[C@H]2[C@H]1CC/C(COC(=O)CCC(=O)N1CCC(C)CC1)=C\CC[C@@]1(C)O[C@@H]21 [JVM 2-70]
Outcome of initial single dose screening [3]: selected for a five-dose screening
Reduction of cell viability (M9 ENL cells [2]): greater than 50%

C=C1C(=O)O[C@H]2[C@H]1CC/C(COC(=O)NC)=C\CC[C@@]1(C)O[C@@H]21 [JVM 2-57]
Outcome of initial single dose screening [3]: selected for a five-dose screening

C=C1C(=O)O[C@H]2[C@H]1CC/C(COC(=O)c1ccc(OC)cc1OC)=C\CC[C@@]1(C)O[C@@H]21 [JVM 3-44]
EC50 (M9 ENL cells [1]): 3.5 µM

C=C1C(=O)O[C@H]2[C@H]1CC/C(COC(=O)N1CCC(F)(F)CC1)=C\CC[C@@]1(C)O[C@@H]21 [Compound 6a, ((1aR,7aS,10aS,10bS,E)-1a-methyl-8-methylene-9-oxo-1a,2,3,6,7,7a,8,9,10a,10b-decahydrooxireno[2′,3′:9,10]cyclodeca[1,2-b]furan-5-yl)methyl-4,4-difluoropiperidine-1-carboxylate]
Growth inhibition compared to PTL (1) and DMAPT (2) [3]: generally exhibited improved growth inhibition against all human tumor cell lines when compared to PTL (1) and DMAPT (2)
Antileukemic activity compared to parent compound MMB [3]: more potent than the parent compound

C=C1C(=O)O[C@H]2[C@H]1CC/C(COC(=O)Nc1n[nH]c(SC)n1)=C\CC[C@@]1(C)O[C@@H]21 [Compound 6e, ((1aR,7aS,10aS,10bS,E)-1a-methyl-8-methylene-9-oxo-1a,2,3,6,7,7a,8,9,10a,10b-decahydrooxireno[2′,3′:9,10]cyclodeca[1,2-b]furan-5-yl)methyl-(5-(methylthio)-1H-1,2,4-triazol-3-yl)carbamate]
Growth inhibition compared to PTL (1) and DMAPT (2) [3]: generally exhibited improved growth inhibition against all human tumor cell lines when compared to PTL (1) and DMAPT (2)
Outcome of initial single dose screening [3]: selected for a five-dose screening
Antileukemic activity compared to parent compound MMB [3]: more potent than the parent compound

C=C1C(=O)O[C@H]2[C@H]1CC/C(COC(=O)c1cc(OC)c(OC)c(OC)c1)=C\CC[C@@]1(C)O[C@@H]21 [JVM 3-22]
EC50 (M9 ENL cells [1]): 4.7 µM

C=C1C(=O)O[C@H]2[C@H]1CC/C(C(=O)N1CCC(F)(F)CC1)=C\CC[C@@]1(C)O[C@@H]21 [JVM 3-50]
EC50 (M9 ENL cells [1]): 3.5 µM

C=C1C(=O)O[C@H]2[C@H]1CC/C(C(=O)N1CCCCC1)=C\CC[C@@]1(C)O[C@@H]21 [JVM 3-52]
EC50 (M9 ENL cells [1]): 8.3 µM

C=C1C(=O)O[C@H]2[C@H]1CC/C(COC(=O)OCCN(C)C)=C\CC[C@@]1(C)O[C@@H]21 [JVM 2-35]
Outcome of initial single dose screening [3]: selected for a five-dose screening

C=C1C(=O)O[C@H]2[C@H]1CC/C(COC(=O)NCCN1CCCC1)=C\CC[C@@]1(C)O[C@@H]21 [Compound 6b, ((1aR,7aS,10aS,10bS,E)-1a-methyl-8-methylene-9-oxo-1a,2,3,6,7,7a,8,9,10a,10b-decahydrooxireno[2′,3′:9,10]cyclodeca[1,2-b]furan-5-yl)methyl-(2-(pyrrolidin-1-yl)ethyl)carbamate]
Outcome of initial single dose screening [3]: selected for a five-dose screening

C=C1C(=O)O[C@H]2[C@H]1CC/C(COC(=O)NCCc1ccccn1)=C\CC[C@@]1(C)O[C@@H]21 [Compound 6c, ((1aR,7aS,10aS,10bS,E)-1a-methyl-8-methylene-9-oxo-1a,2,3,6,7,7a,8,9,10a,10b-decahydrooxireno[2′,3′:9,10]cyclodeca[1,2-b]furan-5-yl)methyl-(2-(pyridin-2-yl)ethyl)carbamate]
Outcome of initial single dose screening [3]: selected for a five-dose screening

C=C1C(=O)O[C@H]2[C@H]1CC/C(C(=O)n1ccnc1C)=C\CC[C@@]1(C)O[C@@H]21 [JVM 3-57]
EC50 (M9 ENL cells [1]): 5.9 µM

C=C1C(=O)O[C@H]2[C@H]1CC/C(C(=O)N1CCC(C)CC1)=C\CC[C@@]1(C)O[C@@H]21 [JVM 3-51]
EC50 (M9 ENL cells [1]): 12 µM

C=C1C(=O)O[C@H]2[C@H]1CC/C(COC(=O)c1ccc(Cl)nc1)=C\CC[C@@]1(C)O[C@@H]21 [JVM 340]
EC50 (M9 ENL cells [2]): 11 µM

C=C1C(=O)O[C@H]2[C@H]1CC/C(COC(=O)NCCO)=C\CC[C@@]1(C)O[C@@H]21 [JVM 2-50]
Outcome of initial single dose screening [3]: selected for a five-dose screening
